Measured values from patent US20110294772A1, “USE OF CYCLOSQUARAMIDE COMPOUNDS AS ANTI-TUMOUR AGENTS” (priority 2008, published 2011).
Like-named read-outs stand apart in the source and are kept apart here.

Tested on: Jeko-1
Test: cell viability assay
Assay type: cell-based, human
Conditions: cell viability, total incubation period 48 h, read-out: IC50 (μM) against Jeko-1 cells
Procedure: The IC50 in cell viability assays were determined for some of the macrocycles prepared in Jeko-1 (B-cell lymphoma (MCL) type cells. With a total incubation period of 48 h.

Structure (SMILES): CN1CCCNc2c(c(=O)c2=O)NCCCN(C)CCCNc2c(c(=O)c2=O)NCCCN(C)CCCNc2c(c(=O)c2=O)NCCCN(C)CCCNc2c(c(=O)c2=O)NCCCN(C)CCCNc2c(c(=O)c2=O)NCCCN(C)CCCNc2c(c(=O)c2=O)NCCC1 [Compound 1]
- IC50: 27 µM

Structure (SMILES): CSCCC1Nc2c(c(=O)c2=O)NCCCN(C)CCCNc2c(c(=O)c2=O)NCCCN(C)CCCNc2c(c(=O)c2=O)NCCCN(C)CCCNc2c(c(=O)c2=O)NCCCN(C)CCCNc2c(c(=O)c2=O)NCCCNC1=O (stereo not drawn) [Compound 3]
- IC50 (Homo sapiens, JeKo-1, 48 h): 34 µM

Structure (SMILES): CN1CCCNc2c(c(=O)c2=O)NCCCN(C)CCCNc2c(c(=O)c2=O)NCCCN(C)CCCNc2c(c(=O)c2=O)NCCCN(C)CCCNc2c(c(=O)c2=O)NCCCN(C)CCCNc2c(c(=O)c2=O)NCCCN(C)CCCNc2c(c(=O)c2=O)NCCC1 [Compound 11]
- IC50: 9.4 µM

Structure (SMILES): CN1CCCNc2c(c(=O)c2=O)NCCCN(C)CCCNc2c(c(=O)c2=O)NCCCN(C)CCCNc2c(c(=O)c2=O)NCCCN(C)CCCNc2c(c(=O)c2=O)NCCCN(C)CCCNc2c(c(=O)c2=O)NCCCN(C)CCCNc2c(c(=O)c2=O)NCCC1 [Compound 5]
- IC50: 50 µM

Structure (SMILES): CN1CCCNc2c(c(=O)c2=O)NCCCN(C)CCCNc2c(c(=O)c2=O)NCCCN(C)CCCNc2c(c(=O)c2=O)NCCCN(C)CCCNc2c(c(=O)c2=O)NCCCN(C)CCCNc2c(c(=O)c2=O)NCCCN(C)CCCNc2c(c(=O)c2=O)NCCC1 [Compound 2]
- IC50: 45 µM

Structure (SMILES): CSCCC1Nc2c(c(=O)c2=O)NCCCN(C)CCCNc2c(c(=O)c2=O)NCCCN(C)CCCNc2c(c(=O)c2=O)NCCCN(C)CCCNc2c(c(=O)c2=O)NCCCN(C)CCCNc2c(c(=O)c2=O)NCCCN(C)CCCNc2c(c(=O)c2=O)NCCCNC1=O (stereo not drawn) [Compound 4]
- IC50 (Homo sapiens, JeKo-1, 48 h): 24 µM
